The numbers were not newly measured in patent publication US11850218B2, “Nutraceutical compositions and methods for dietary alleviation of Polycystic Ovary Syndrome” (Provation Life LLC, priority 2022, dated 2023), which cites them from elsewhere.

The subject of data set [1] is cellular sensitivity to insulin.

In the case of `COc1ccc2cc3[n+](cc2c1OC)CCc1cc2c(cc1-3)OCO2` [Berberine], the “cellular sensitivity to insulin / insulin resistance” value in data set [1] was “decrease insulin resistance”.
Consider `COc1cc(/C=C/C(=O)CC(=O)/C=C/c2ccc(O)c(OC)c2)ccc1O` [Curcumin], for which, in data set [1], the “cellular sensitivity to insulin / insulin resistance” value is “increases cellular sensitivity to insulin”.
In the case of `[Mg+2]` [Magnesium], in the data set on hyperandrogenism, the anti-androgenic effect result is “show anti-androgenic effects”. In addition, in the data set on hyperandrogenism (supplementation), the “production of lutenizing hormone” value is reported as “seems to have a positive effect”.
For `CC[C@H](C)C(=O)O[C@H]1C[C@@H](C)C=C2C=C[C@H](C)[C@H](CC[C@@H]3C[C@@H](O)CC(=O)O3)[C@H]21` [Monacolin K], in the data set on hyperandrogenism, the anti-androgenic effect entry was “provides an anti-androgenic effect”.
Turning to `[Zn]` [Zinc], the anti-androgenic effect result with hyperandrogenism was “show anti-androgenic effects”. Also, in the data set with hyperandrogenism (supplementation), the production of progesterone result is given as “increase production”.
As to `O[C@H]1[C@H](O)[C@@H](O)[C@H](O)[C@@H](O)[C@H]1O` [myo-inositol], the “cellular sensitivity to insulin / insulin resistance” value in data set [1] is listed as “increase cellular sensitivity to insulin”. Moreover, the anti-androgenic effect result in the data set on hyperandrogenism was “significant anti-androgenic effect”. Also, in the data set on PCOS cases, the “menstruation / menstrual cyclicity” value is reported as “restoration of normal menstruation”.
chromium (III) picolinate: the “cellular sensitivity to insulin / insulin resistance” value in data set [1] is “positive effect upon cellular sensitivity to insulin”. Also, in the data set on hyperandrogenism, the anti-androgenic effect result is recorded as “produces an anti-androgenic effect”. In addition, the free testosterone levels entry with hyperandrogenism (PCOS cases) is given as “lowering free testosterone levels”.
